Experimental findings from patent US20180186815A1, “PHARMACEUTICAL COMPOSITIONS, METHODS FOR THEIR PREPARATION AND THEIR USE IN THE TREATMENT OF CANCER” (Urifer Ltd., priority 2016, published 2018) are described below.

Type in all cases: cell-based
Data set [1] has as its system colon cancer cell line HCT 116. Description: Growth profile / viability of HCT116 colon cancer cells, XTT test. Particulars: Homo sapiens, HCT-116, 96 h, Control DMSO = 100%, read-out: percentage of viable cells, HCT116. An outline of the steps: (§1)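 Cells were seeded and grown untreated overnight, then exposed to compounds at a final 5 μM (0.4% v/v DMSO). Untreated and 0.4% DMSO-only cells were the controls. Percent viable cells was measured by XTT 96 h after compound addition.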
In general terms: Tetrazolium assays rely on reduction of a dye to a coloured formazan, in cell work by metabolically active cells.

The test system of data set [2] is colon cancer cell line HT29. Briefly: Growth profile / viability of HT29 colon cancer cells, XTT test. Particulars: Homo sapiens, HT-29, 96 h, Control DMSO = 100%, read-out: percentage of viable cells, HT29. An outline of the steps: as §1
In data set [3] the test system is colon cancer cell line RKO. Briefly: Growth profile / viability of RKO colon cancer cells, XTT test. As to conditions: 96 h, Control DMSO = 100%, read-out: percentage of viable cells, RKO. An outline of the steps:
as §1

A short description of data set [4]: Viability of FS non malignant fibroblastic cells, XTT test. Particulars: FS cells (non-malignant fibroblastic cell line), Control DMSO = 100%, read-out: percentage of viable cells, FS. An outline of the steps: as §1

Where two headings read alike, the source gives them in different places.

As to `CN(CCc1ccccn1)C(=O)C1CCN(c2nn3cc(-c4ccc(Cl)cc4)nc3s2)CC1` [Compound Z522-0203, 1-[6-(4-chlorophenyl)imidazo[2,1-b][1,3,4]thiadiazol-2-yl]-N-methyl-N-(2-pyridin-2-ylethyl) piperidine-4-carboxamide], the viability at 5 µM in data set [1] (first HCT116 column) is 75%; in data set [1] (second HCT116 column) it was 75%; in data set [2] (first HT29 column) it was 74%; in data set [2] (second HT29 column) it was 88%; in data set [3] (first RKO column), 48%; in data set [3] (second RKO column), 48%. Moreover, the viability at 96 h, 5 µM in data set [4] (first FS column) stood at 90%; in data set [4] (second FS column), 94%.
Consider `O=C(C1CCN(c2nn3cc(-c4ccc(Cl)cc4)nc3s2)CC1)N1CCN(c2ncccn2)CC1` [Compound Z522-0204, 6-(4-chlorophenyl)-2-{4-[(4-pyrimidin-2-ylpiperazin-1-yl)carbonyl]piperidin-1-yl}imidazo[2,1-b][1,3,4]thiadiazole], for which the viability at 5 µM in data set [1] (first HCT116 column) was 97%; in data set [1] (second HCT116 column), 110%; in data set [2] (first HT29 column), 105%; in data set [2] (second HT29 column), 97%; in data set [3] (first RKO column), 92%; in data set [3] (second RKO column), 76%. Besides, the viability at 96 h, 5 µM in data set [4] (first FS column) was found to be 96%; in data set [4] (second FS column) it was 93%.
Consider `CN(CCc1ccncc1)C(=O)C1CCN(c2nn3cc(-c4ccc(Cl)cc4)nc3s2)CC1` [Compound Z522-0205, 1-[6-(4-chlorophenyl)imidazo[2,1-b][1,3,4]thiadiazol-2-yl]-N-methyl-N-(2-pyridin-4-ylethyl) piperidine-4-carboxamide], for which the viability at 5 µM in data set [1] (first HCT116 column) was 78%; in data set [1] (second HCT116 column) it was 71%; in data set [2] (first HT29 column), 88%; in data set [2] (second HT29 column), 85%; in data set [3] (first RKO column) it was 52%; in data set [3] (second RKO column), 62%. Moreover, the results for the viability at 96 h, 5 µM in data set [4] (first FS column) and in data set [4] (second FS column) were 88% and 111%, respectively.
Turning to `Cc1ccc(C)n1CCN1CCN(C(=O)C2CCN(c3nn4cc(-c5ccc(Cl)cc5)nc4s3)CC2)CC1` [Compound Z522-0209, 6-(4-chlorophenyl)-2-[4-({4-[2-(2,5-dimethyl-1H-pyrrol-1-yl)ethyl]piperazin-1-yl}carbonyl)piperidin-1-yl]imidazo[2,1-b][1,3,4]thiadiazole], the viability at 5 µM in data set [1] (first HCT116 column) was determined as 71%; in data set [1] (second HCT116 column), 59%; in data set [2] (first HT29 column), 25%; in data set [2] (second HT29 column), 30%; in data set [3] (first RKO column), 52%; in data set [3] (second RKO column), 55%. Also, the viability at 96 h, 5 µM in data set [4] (first FS column) came to 89%; in data set [4] (second FS column) it was 96%.
On to `O=C(C1CCN(c2nn3cc(-c4ccc(Cl)cc4)nc3s2)CC1)N1CCCCC1CN1CCOCC1` (centres unmarked) [Compound Z522-0213, 6-(4-chlorophenyl)-2-(4-{[2-(morpholin-4-ylmethyl)piperidin-1-yl]carbonyl}piperidin-1-yl)imidazo[2,1-b][1,3,4] thiadiazole], for which the viability at 5 µM in data set [1] (first HCT116 column) turned out to be 84%; in data set [1] (second HCT116 column), 88%; in data set [2] (first HT29 column) it was 87%; in data set [2] (second HT29 column), 99%; in data set [3] (first RKO column) it was 18%; in data set [3] (second RKO column), 13%. Besides, the values for the viability at 96 h, 5 µM in data set [4] (first FS column) and in data set [4] (second FS column) were 87% and 98%, respectively.
Turning to `O=C(C1CCN(c2nn3cc(-c4ccc(Cl)cc4)nc3s2)CC1)N1CCCC(CN2CCOCC2)C1` (centres unmarked) [Compound Z522-0214, 6-(4-chlorophenyl)-2-(4-{[3-(morpholin-4-ylmethyl)piperidin-1-yl]carbonyl}piperidin-1-yl)imidazo[2,1-b][1,3,4]thiadiazole], the viability at 5 µM worked out at 70% in data set [1] (first HCT116 column); 71% in data set [1] (second HCT116 column); 53% in data set [2] (first HT29 column); 57% in data set [2] (second HT29 column); 24% in data set [3] (first RKO column); 23% in data set [3] (second RKO column). Further, the viability at 96 h, 5 µM was determined as 104% in data set [4] (first FS column) and 90% in data set [4] (second FS column).
Consider `CN1CCN(C(=O)CN2CCN(C(=O)C3CCN(c4nn5cc(-c6ccc(Cl)cc6)nc5s4)CC3)CC2)CC1` [Compound Z522-0215, 6-(4-chlorophenyl)-2-[4-({4-[2-(4-methylpiperazin-1-yl)-2-oxoethyl]piperazin-1-yl}carbonyl)piperidin-1-yl]imidazo[2,1-b][1,3,4]thiadiazole], for which the viability at 5 µM came to 63% in data set [1] (first HCT116 column); 58% in data set [1] (second HCT116 column); 14% in data set [2] (first HT29 column); 11% in data set [2] (second HT29 column); 6% in data set [3] (first RKO column); 10% in data set [3] (second RKO column). Further, the viability at 96 h, 5 µM was found to be 85% in data set [4] (first FS column) and 109% in data set [4] (second FS column).
In the case of `CN(C)CCNC(=O)CN(C)C(=O)C1CCN(c2nn3cc(-c4ccc(Cl)cc4)nc3s2)CC1` [Compound Z522-0216, 1-[6-(4-chlorophenyl)imidazo[2,1-b][1,3,4]thiadiazol-2-yl]-N^4-(2-[2-(dimethylamino)ethyl]amino-2-oxoethyl)-N^4-methyl-4-piperidinecarboxamide], the viability at 5 µM is 68% in data set [1] (first HCT116 column); 86% in data set [1] (second HCT116 column); 10% in data set [2] (first HT29 column); 11% in data set [2] (second HT29 column); 0% in data set [3] (first RKO column); 2% in data set [3] (second RKO column). The viability at 96 h, 5 µM in data set [4] (first FS column) is 86%; in data set [4] (second FS column) it was 93%.
On to `O=C(C1CCN(c2nn3cc(-c4ccc(Cl)cc4)nc3s2)CC1)N1CCCN(c2ncccn2)CC1` [Compound Z522-0219, 6-(4-chlorophenyl)-2-{4-[(4-pyrimidin-2-yl-1,4-diazepan-1-yl)carbonyl]piperidin-1-yl}imidazo[2,1-b][1,3,4]thiadiazole], for which the viability at 5 µM in data set [1] (first HCT116 column) was 75%; in data set [1] (second HCT116 column), 67%; in data set [2] (first HT29 column), 91%; in data set [2] (second HT29 column) it was 95%; in data set [3] (first RKO column), 48%; in data set [3] (second RKO column) it was 45%. The viability at 96 h, 5 µM in data set [4] (first FS column) turned out to be 89%; in data set [4] (second FS column), 94%.
For the compound `CC(C)c1ccc(-c2cn3nc(N4CCC(C(=O)N5CCN(c6ccccn6)CC5)CC4)sc3n2)cc1` [Compound Z522-0223, 6-(4-isopropyl-phenyl)-2-{4-[(4-pyridin-2-ylpiperazin-1-yl)carbonyl]piperidin-1-yl}imidazo[2,1-b][1,3,4]thiadiazole], the viability at 5 µM in data set [1] (first HCT116 column) worked out at 75%; in data set [1] (second HCT116 column), 80%; in data set [2] (first HT29 column), 83%; in data set [2] (second HT29 column) it was 89%; in data set [3] (first RKO column) it was 64%; in data set [3] (second RKO column), 81%. Besides, the viability at 96 h, 5 µM in data set [4] (first FS column) was 87%; in data set [4] (second FS column) it was 92%.
Take `CC(C)c1ccc(-c2cn3nc(N4CCC(C(=O)N(C)CCc5ccccn5)CC4)sc3n2)cc1` [Compound Z522-0226, 1-[6-(4-isopropylphenyl)imidazo[2,1-b][1,3,4]thiadiazol-2-yl]-N-methyl-N-(2-pyridin-2-ylethyl)piperidine-4-carboxamide]: the viability at 5 µM in data set [1] (first HCT116 column) is 80%; in data set [1] (second HCT116 column), 80%; in data set [2] (first HT29 column), 101%; in data set [2] (second HT29 column), 92%; in data set [3] (first RKO column) it was 72%; in data set [3] (second RKO column), 64%. In addition, the viability at 96 h, 5 µM was determined as 91% in data set [4] (first FS column) and 99% in data set [4] (second FS column).
For the compound `CC(C)c1ccc(-c2cn3nc(N4CCC(C(=O)N5CCN(c6ncccn6)CC5)CC4)sc3n2)cc1` [Compound Z522-0227, 6-(4-isopropyl-phenyl)-2-{4-[(4-pyrimidin-2-ylpiperazin-1-yl)carbonyl]piperidin-1-yl}imidazo[2,1-b][1,3,4]thiadiazole], the viability at 5 µM in data set [1] (first HCT116 column) worked out at 72%; in data set [1] (second HCT116 column), 84%; in data set [2] (first HT29 column), 91%; in data set [2] (second HT29 column), 91%; in data set [3] (first RKO column), 63%; in data set [3] (second RKO column), 63%. The viability at 96 h, 5 µM in data set [4] (first FS column) was determined as 89%; in data set [4] (second FS column), 91%.
As for `CC(C)c1ccc(-c2cn3nc(N4CCC(C(=O)N(C)CCc5ccncc5)CC4)sc3n2)cc1` [Compound Z522-0228, 1-[6-(4-isopropylphenyl)imidazo[2,1-b][1,3,4]thiadiazol-2-yl]-N-methyl-N-(2-pyridin-4-ylethyl)piperidine-4-carboxamide], the viability at 5 µM in data set [1] (first HCT116 column) is 82%; in data set [1] (second HCT116 column), 70%; in data set [2] (first HT29 column) it was 58%; in data set [2] (second HT29 column), 61%; in data set [3] (first RKO column) it was 51%; in data set [3] (second RKO column), 55%. Also, the viability at 96 h, 5 µM in data set [4] (first FS column) was determined as 111%; in data set [4] (second FS column), 113%.
